Literature values in patent US20230036624A1, “RETINOL-BASED COMPOSITION” (L'OREAL, priority 2019, published 2023).

Tested on: human epidermal keratinocytes grown in monolayer culture

CCCCCCCCCCCCCCCC(=O)OC/C=C(C)/C=C/C=C(C)/C=C/C1=C(C)CCCC1(C)C [retinyl palmitate]
effectiveness compared with retinol, measured at the transcriptomic level: less effective than retinol
